Patent US10125100B2, “Kinase inhibitors” (Respivert Limited, priority 2014, dated 2018)

Columns and labels:
Syk = Syk (Homo sapiens (Human), UniProt P43405); assay: Syk enzyme inhibition, Z-LYTE FRET; assay type: biochemical
In short: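 Syk or c-Src enzyme (3000 or 2000 ng/mL solutions) was preincubated 2 h at RT with compound solutions at 1, 0.1, 0.01 or 0.001 µg/mL. Z-LYTE FRET peptide (8 µM solution) and ATP (800 µM solution for c-Src, 60 µM for Syk) were then added for 1 h, followed by protease development for 1 h. Phosphorylation was read as the coumarin/fluorescein emission ratio.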

non-mutant kinases = assay: KinomeScan selectivity scores; assay type: binding; conditions: for number of individual kinase hits S(1): % Ctrl <1; for number of individual kinase hits S(10): % Ctrl <10; for number of individual kinase hits S(35): % Ctrl <35; for KinomeScan Selectivity Score S(10): non-mutant kinases with % Ctrl <10 / kinases tested; for KinomeScan Selectivity Score S(35): non-mutant kinases with % Ctrl <35 / kinases tested
Text: (§1) These assays may be conducted by DiscoverX (formerly Ambit; San Diego, Calif.).

p38 MAPKα (MAPK14) = p38 MAPKα (MAPK14) (Homo sapiens (Human), UniProt Q16539); assay: p38 MAPKα enzyme inhibition (Method 2), Z-LYTE FRET; assay type: biochemical
In short: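 Enzyme (200 ng/mL solution) was preincubated 2 h at RT with compound solutions of 1, 0.1, 0.01 or 0.001 μg/mL, and inhibition was read indirectly via MAPKAP-K2 activation/phosphorylation. After a 1 h RT reaction and 1 h protease development, phosphorylation was derived from the coumarin/fluorescein emission ratio.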

c-Src = c-Src (Homo sapiens (Human), UniProt P12931); assay: c-Src enzyme inhibition, Z-LYTE FRET; assay type: biochemical
In short: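 Z-LYTE FRET peptide phosphorylation read as donor coumarin over acceptor fluorescein ratio after 1 hr protease development. Compounds (1–0.001 μg/mL) preincubated 2 hr at RT with enzyme; ATP solutions 60 μM for Syk, 800 μM for c-Src; kinase reaction 1 hr.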

Jurkat cells = assay: (r) Cell cytotoxicity assay; assay type: cell-based, human; conditions: 24 hours
In short: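 Viability read by flow cytometry as the fraction of propidium iodide-negative cells (7.5 μg/mL PI, 15 min), relative to 1.0% DMSO control. Beforehand, 1×10^5 Jurkat cells in RPMI/10% FBS were treated 24 h at 37° C., 5% CO2 with test compound at final 20, 5 or 1 μg/mL.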

[1] = Hydrolytic stability study; assay type: physicochemical; conditions: DMSO/water (3:1), 1 mg/mL
Procedure: Chemical stability of compounds of the invention was assessed in a mixture of DMSO and water (3:1) at a test compound concentration of 1 mg/mL.
General HPLC Procedure • Agilent, Waters X-Select C18, 2.5 μm, 4.6×30 mm column, 4 min method, 5-95% MeCN/water (0.1% formic acid). Flow rate 2.5 mL/min. Column Oven Temperature 40° C. Detection 254 nm.
Sample Preparation • A 1.0 mg sample of test compound was dissolved in 750 μL of DMSO. Water (250 μL) was added slowly, ensuring no precipitation occurred.
Recording Stability • A 50 μL aliquot of the test solution was removed and analysed in duplicate by 5 μL HPLC injections. The peak area for the test compound was recorded following manual integration of the corresponding UV trace. • The test solution was heated to 60° C., with stirring, and 50 μL aliquots removed for HPLC analysis at 5 and 24 h timepoints.

B-Raf (V600E) = B-Raf (V600E) (Homo sapiens (Human), UniProt P15056, V600E); assay: KINOMEscan binding of kinase to standard ligand; conditions: KINOMEscan technology
Text: as §1

B-Raf = B-Raf (Homo sapiens (Human), UniProt P15056); assay: KINOMEscan binding of kinase to standard ligand; conditions: KINOMEscan technology
Text: as §1

[2] = Stability of pharmaceutical formulations; assay type: physicochemical
Procedure: The samples were sonicated to achieve clear solutions having the following properties: Osmolality (mOsm/kg): 310 (Na), 314 (HCl); pH: 7.00 (Na), 7.05 (HCl). 0.5 mL of the stock solutions were diluted to 1 mL with 20% DMSO in water & injected for purity analysis by HPLC. The remaining stock solutions were then split into aliquots of 0.5 mL in HPLC vials, and stored at various conditions in duplicate. Samples were stored at 5 and 25° C., before being analysed by HPLC at 1, 2 and 4 weeks. Separate samples were stored at 40° C. and analysed at 4 weeks.

[3] = test system: eyes of albino New Zealand White rabbits
[4] = test system: LPS-stimulated Lewis rats; assay: (vi) Endotoxin-induced uveitis in rats; assay type: in vivo, rat
Procedure: Male, Lewis rats (6-8 weeks old, Charles River UK Limited) are housed in cages of 3 at 19-21° C. with a 12 h light/dark cycle (07:00/19:00) and fed a standard diet of rodent chow and water ad libitum. Non-fasted rats are weighed, individually identified on the tail with a permanent marker, and receive a single intravitreal administration into the right vitreous humor (5 μL dose volume) of 100 ng/animal of LPS (Escherichia coli 0111:B4 prepared in PBS, Sigma Aldrich, UK) using a 32-gauge needle. Untreated rats are injected with PBS. Test compound or vehicle (4% polyoxyl 40 stearate, 4% mannitol in PBS ([…])) are administered by the topical route onto the right eye (10 μL) of animals 1 hour prior to LPS, at the time of LPS administration, and 1, 2 and 4 hours post LPS administration. Before administration, the solution to be administered is sonicated to ensure a clear solution. 6 hours after LPS dosing, animals are euthanized by overdose with pentobarbitone (via cardiac puncture). Immediately after euthanasia, 10 μL of aqueous humor is collected from the right eye of the rats by puncture of the anterior chamber using a 32 gauge needle under a surgical microscope. The aqueous humor is diluted in 20 μL of PBS and total cell counts are measured immediately using a Countess automated cell counter (Invitrogen). Following collection of the aqueous humour, the right eye of each animal is enucleated and dissected into front (anterior) and back (posterior) sections around the lens. Each section is weighed and homogenised in 500 μL of sterile phosphate buffered saline followed by 20 minutes centrifugation at 12000 rpm at 4° C. The resulting supernatant is divided into 3 aliquots and stored at −80° C. until subsequent cytokine analysis by R&D DuoSet ELISA.

[5] = test system: Escherichia coli, WP2 uvrA; assay: Bacterial reverse mutation screen; conditions: for mutagenic effects (revertant numbers): plate incorporation, presence and absence of S-9 mix
[6] = test system: Salmonella typhimurium, strains TA1535, TA1537, TA98 and TA100; assay: Bacterial reverse mutation screen; conditions: for toxicity of the test item to the bacteria (mean colony count): at the highest doses (500-5000 μg/plate) in some strains; for mutagenic effects (revertant numbers): plate incorporation, presence and absence of S-9 mix
mitosis in PBMCs = assay: (g) Cell mitosis assay; assay type: cell-based; conditions: Homo sapiens, PBMC, 5 μg/mL
In short: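 Healthy-donor PBMCs stimulated with 2% PHA for 48 hr, then exposed to test compounds at varying concentrations for 20 hr; demecolcine (0.1 μg/mL) added 2 hr before collection for metaphase arrest. Cells fixed/permeabilized, stained with anti-phospho-histone 3 and propidium iodide; mitotic cells counted by flow cytometry gating on lymphocytes.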

[7] = sodium (Na) salt, 1 mg/mL in 10 mM pH 7.2 phosphate buffer, 4.5% mannitol, 3% polyoxyl 40 stearate
[8] = rats treated with intravitreal endotoxin LPS

Sequence of B-Raf (P15056 whole entry): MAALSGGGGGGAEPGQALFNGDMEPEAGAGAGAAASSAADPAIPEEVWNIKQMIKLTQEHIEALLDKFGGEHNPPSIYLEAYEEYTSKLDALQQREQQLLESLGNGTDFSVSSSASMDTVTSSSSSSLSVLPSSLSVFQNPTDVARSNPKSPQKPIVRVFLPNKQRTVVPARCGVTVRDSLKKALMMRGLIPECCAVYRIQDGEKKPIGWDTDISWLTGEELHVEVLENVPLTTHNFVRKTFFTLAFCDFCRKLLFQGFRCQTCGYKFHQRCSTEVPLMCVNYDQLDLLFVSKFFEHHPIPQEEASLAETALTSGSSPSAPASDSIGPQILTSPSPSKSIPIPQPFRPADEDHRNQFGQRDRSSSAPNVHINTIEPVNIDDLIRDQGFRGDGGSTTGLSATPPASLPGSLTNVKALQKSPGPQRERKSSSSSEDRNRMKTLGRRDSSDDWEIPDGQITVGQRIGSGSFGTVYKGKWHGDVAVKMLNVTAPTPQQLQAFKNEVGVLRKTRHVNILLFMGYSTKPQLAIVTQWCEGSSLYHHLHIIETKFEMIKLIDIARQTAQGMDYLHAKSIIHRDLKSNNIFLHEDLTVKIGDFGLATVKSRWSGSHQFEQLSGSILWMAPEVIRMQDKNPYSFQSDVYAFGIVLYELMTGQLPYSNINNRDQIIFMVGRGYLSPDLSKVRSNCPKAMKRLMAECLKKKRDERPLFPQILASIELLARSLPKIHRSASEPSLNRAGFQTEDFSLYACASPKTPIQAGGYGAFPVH
Sequence of B-Raf (V600E) (P15056 whole entry V600E): as the sequence (P15056 whole entry) above, with V600E counted along it
Sequence of c-Src (P12931 whole entry, looked up): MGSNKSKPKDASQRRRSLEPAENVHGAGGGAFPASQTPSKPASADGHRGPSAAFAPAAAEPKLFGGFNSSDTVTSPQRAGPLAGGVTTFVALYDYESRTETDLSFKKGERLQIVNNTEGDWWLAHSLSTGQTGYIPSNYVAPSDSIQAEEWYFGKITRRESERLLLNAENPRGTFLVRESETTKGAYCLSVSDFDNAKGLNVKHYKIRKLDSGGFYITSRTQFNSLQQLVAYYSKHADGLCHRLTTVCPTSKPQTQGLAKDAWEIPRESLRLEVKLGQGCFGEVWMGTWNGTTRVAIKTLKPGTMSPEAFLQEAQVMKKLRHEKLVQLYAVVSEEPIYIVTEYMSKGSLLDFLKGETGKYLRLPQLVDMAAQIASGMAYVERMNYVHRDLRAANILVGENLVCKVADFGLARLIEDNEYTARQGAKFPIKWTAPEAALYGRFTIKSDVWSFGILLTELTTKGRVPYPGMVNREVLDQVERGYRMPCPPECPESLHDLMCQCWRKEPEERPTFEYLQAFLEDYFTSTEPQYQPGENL
Sequence of p38 MAPKα (MAPK14) (Q16539 whole entry): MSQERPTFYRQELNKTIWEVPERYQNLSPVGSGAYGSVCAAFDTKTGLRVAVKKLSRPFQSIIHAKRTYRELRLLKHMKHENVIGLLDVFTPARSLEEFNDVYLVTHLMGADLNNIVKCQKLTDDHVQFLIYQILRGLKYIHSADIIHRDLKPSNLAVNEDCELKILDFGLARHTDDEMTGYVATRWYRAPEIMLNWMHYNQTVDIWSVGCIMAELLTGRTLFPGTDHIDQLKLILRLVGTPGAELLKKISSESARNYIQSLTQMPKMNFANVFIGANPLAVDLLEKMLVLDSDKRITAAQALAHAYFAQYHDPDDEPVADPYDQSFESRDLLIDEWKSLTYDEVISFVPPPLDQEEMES

With `COc1cc(Nc2cc(Oc3ccc(NC(=O)Nc4cc(C(C)(C)C)cc(NS(C)(=O)=O)c4OC)c4ccccc34)ccn2)cc(OC)c1C(=O)NCCOCCOCCOP(=O)(O)O` [Example 47, 2-(2-(2-(4-((4-((4-(3-(5-(tert-butyl)-2-methoxy-3-(methylsulfonamido)phenyl)ureido)-naphthalen-1-yl)oxy)pyridin-2-yl)amino)-2,6-dimethoxybenzamido)ethoxy)ethoxy)ethyl dihydrogen phosphate] as the compound, how does the IC50 (Syk) read?
The IC50 was 8 nM.

And the “number of individual kinase hits S(1)” value (non-mutant kinases; 50 nM)?
Its value is 0.

What about the “number of individual kinase hits S(10)” value (non-mutant kinases; 50 nM) of the same compound?
Its value is 17.

And the “number of individual kinase hits S(35)” value (non-mutant kinases; 50 nM)?
Its value is 55.

What about the “KinomeScan Selectivity Score S(10)” value (non-mutant kinases; 50 nM) of the same compound?
The value was 0.042.

And the “KinomeScan Selectivity Score S(35)” value (non-mutant kinases; 50 nM)?
The value was 0.136.

And the “number of individual kinase hits S(1)” value (non-mutant kinases; 500 nM)?
The value was 30.

What about the “number of individual kinase hits S(10)” value (non-mutant kinases; 500 nM) of the same compound?
Its value is 90.

What about the “number of individual kinase hits S(35)” value (non-mutant kinases; 500 nM) of the same compound?
The value was 128.

What about the “KinomeScan Selectivity Score S(1)” value (non-mutant kinases; 500 nM, non-mutant kinases with % Ctrl <1 / kinases tested) of the same compound?
Its value is 0.074.

What about the “KinomeScan Selectivity Score S(10)” value (non-mutant kinases; 500 nM) of the same compound?
The value was 0.223.

What about the “KinomeScan Selectivity Score S(35)” value (non-mutant kinases; 500 nM) of the same compound?
The value was 0.318.

And the IC50 (p38 MAPKα (MAPK14))?
Its IC50 is 4 nM.

What about the IC50 (c-Src) of the same compound?
Its IC50 is 15 nM.

What about the “% Viability at 1 μg/mL” value (Jurkat cells) of the same compound?
The value was 91.2%.

What about the “% Viability at 5 μg/mL” value (Jurkat cells) of the same compound?
The value was 96.0%.

What about the “% Viability at 20 μg/mL” value (Jurkat cells) of the same compound?
The value was 97.8%.

What about the “% Parent Remaining” value ([1]; 0 min) of the same compound?
The value was 100%.

And the “% Parent Remaining” value ([1]; 60° C., 317 min)?
The value was 104%.

And the “% Parent Remaining” value ([1]; 60° C., 1450 min)?
Its value is 89%.

What about the “effect on the binding of B-Raf (V600E) to its standard ligand” value (B-Raf (V600E)) of the same compound?
Its value is “did not have any significant effect”.

And the “effect on the binding of B-Raf to its standard ligand” value (B-Raf)?
Its value is “did not have any significant effect”.

Which results are given for `COc1cc(Nc2cc(Oc3ccc(NC(=O)Nc4cc(C(C)(C)C)cc(NS(C)(=O)=O)c4OC)c4ccccc34)ccn2)ccc1C(=O)O` [Example 1, 4-((4-((4-(3-(5-(tert-Butyl)-2-methoxy-3-(methylsulfonamido)phenyl)ureido)naphthalen-1-yl)oxy)pyridin-2-yl)amino)-2-methoxybenzoic acid]?
stability in solution ([2]; 1 mg/mL formulation, 5° C., up to 4 weeks): stable; pH of solution ([2]; hydrochloride (HCl) salt, 1 mg/mL in 10 mM pH 7.2 phosphate buffer, 4.5% mannitol, 3% polyoxyl 40 stearate): 7.05; Osmolality [2, 7]: 310 mOsm/kg; pH of solution [2, 7]: 7.00; local tolerability of the formulations, Phase 2 ([3]; 3 treatment days): acceptable without any aggravation; local tolerability of the formulations, Phase 1 ([3]; after a single dosing day): acceptable; ocular reactions compared with vehicle controls, Phase 1 ([3]; one treatment day, 0.1 and 1.0 mg/mL, four daily instillations): no differences in the frequency, severity and incidence; main ocular reactions, Phase 2 ([3]; three consecutive treatment days, 0.1 and 1.0 mg/mL, four daily instillations): limited to conjunctival redness (grade 1); IL-1β (pg/mL) Anterior tissue ([4]; LPS-stimulated rats, topical 0.01 mg/mL, mean ± SEM): 980.0 ± 110.8 pg/mL; cellular infiltration (cell counts) in the eyes [4, 8]: significantly and dose-dependently reduced; cytokine IL-1β levels in anterior and posterior segments of the eyes [4, 8]: significantly and dose-dependently reduced; mutagenic effects (revertant numbers) [5]: absence of any mutagenic effects; effect on the binding of B-Raf (V600E) to its standard ligand (B-Raf (V600E)): did not have any significant effect; effect on the binding of B-Raf to its standard ligand (B-Raf): did not have any significant effect; toxicity of the test item to the bacteria (mean colony count) [6]: reduction in the mean colony count; mutagenic effects (revertant numbers) [6]: absence of any mutagenic effects; inhibition at 5 µg/mL (mitosis in PBMCs): 2.4%

Which results are given for `COc1cc(Nc2cc(Oc3ccc(NC(=O)Nc4cc(C(C)(C)C)cc(NS(C)(=O)=O)c4OC)c4ccccc34)ccn2)ccc1P(C)(=O)O` [Example 44, (4-((4-((4-(3-(5-(tert-Butyl)-2-methoxy-3-(methylsulfonamido)phenyl)ureido)naphthalen-1-yl)oxy)pyridin-2-yl)amino)-2-methoxyphenyl)(methyl)phosphinic acid]?
IC50 (Syk): 17 nM; IC50 (p38 MAPKα (MAPK14)): 11 nM; IC50 (c-Src): 20 nM; toxicity of the test item to the bacteria (mean colony count) ([5]; 5000 μg/plate in WP2 uvrA, absence of S-9 mix): reduction in the mean colony count; mutagenic effects (revertant numbers) [5]: absence of any mutagenic effects; % Viability at 1 μg/mL (Jurkat cells): 93.3%; % Viability at 5 μg/mL (Jurkat cells): 90.1%; % Viability at 20 μg/mL (Jurkat cells): 92.2%; % Parent Remaining ([1]; 0 min): 100%; % Parent Remaining ([1]; 60° C., 1439 min): 98%; effect on the binding of B-Raf (V600E) to its standard ligand (B-Raf (V600E)): did not have any significant effect; effect on the binding of B-Raf to its standard ligand (B-Raf): did not have any significant effect; toxicity of the test item to the bacteria (mean colony count) [6]: reduction in the mean colony count; mutagenic effects (revertant numbers) [6]: absence of any mutagenic effects
